Measured values from patent publication US7087649B2, “Methods for preventing and treating diseases and conditions associated with cellular stress” (Eisai Co., Ltd., priority 2001, dated 2006).

What was measured:
[1] = cited from earlier work
[2] = cited from earlier work; remark: listed apart in the source
hangover = test: clinical self-experiment on hangover symptoms after alcohol consumption; format: in vivo, human; settings: one inventor on themself; 50 mg orally (capsule) just prior to drinking, 50 mg during, 50 mg next morning; total 150 mg in fourteen hours
From the text: The invention is based, in part, on a clinical experiment that an inventor of the invention described herein conducted on themself using SELBEX® (geranylgeranylacetone). On one occasion in the evening, they consumed an excessive amount of alcoholic beverages and awoke the following morning experiencing abdominal discomfort, nausea, fatigue, and headache. The normal measures that they had taken in the past to ameliorate hangover provided little relief. They decided that on the next occasion on which they would be drinking alcoholic beverages, they would ingest SELBEX® (geranylgeranylacetone) to determine whether it provided relief. Thus, on a subsequent evening, just prior to the drinking of alcoholic beverages, they ingested 50 mg of SELBEX® (geranylgeranylacetone) orally, in the form of a capsule marketed commercially by Eisai Co., Ltd. During the course of the evening, as they continued drinking alcoholic beverages, they ingested an additional 50 mg of SELBEX® (geranylgeranylacetone) orally. The next morning when they awoke, they ingested an additional 50 mg of SELBEX® (geranylgeranylacetone), bringing the total ingested during a fourteen hour period to 150 mg.

## CC(=O)CC/C=C(\C)CC/C=C(\C)CC/C=C(\C)CCC=C(C)C [SELBEX® (geranylgeranylacetone), 3:2 (5E:5Z) geometrical mixture of (9E,13E)-6,10,14,18-tetramethyl-5,9,13,17-nonadecatetraen-2-one]
[1]
  stability to air: affected by air
[2]; methanol, ethanol, acetone, chloroform, and hexane
  miscibility with organic solvents: miscible
[2]; water
  solubility in water: practically insoluble
hangover
  symptoms of hangover (abdominal discomfort, nausea, fatigue, and headache): either abolished or markedly alleviated
